Data set [1] is described as follows: Hydrolysis rate constant of the compound. Type of data set: ADME.
In data set [2] the target is T1, Chymotrypsinogen B (Homo sapiens, UniProt P17538). The experiment in a line: Binding constant alpha-chymotrypsin was determined by competitive inhibition assay with BTEE as substrate.
The nature of data set [3]: Catalytic rate constant of the compound. Type of data set: ADME.
Data set [4] deals with T1, Chymotrypsinogen B. The experiment in a line: Binding constant alpha-chymotrypsin was determined by competitive inhibition assay with Suc-Ala-Ala-Pro-Phe-pNA as substrate.

T1 sequence (P17538 34-164 limits assumed, other chains not shown): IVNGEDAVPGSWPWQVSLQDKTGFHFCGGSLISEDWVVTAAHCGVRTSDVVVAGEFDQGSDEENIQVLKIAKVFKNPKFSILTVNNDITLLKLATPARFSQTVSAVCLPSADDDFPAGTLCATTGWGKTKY
T1 sequence (P17538 167-263 limits assumed, other chains not shown): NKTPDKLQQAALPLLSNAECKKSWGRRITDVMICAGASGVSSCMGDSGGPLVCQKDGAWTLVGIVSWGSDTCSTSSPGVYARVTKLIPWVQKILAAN

As usually defined, the Ki is a measure of affinity in units of concentration, obtained from inhibition or displacement. High values mean lower affinity, low ones higher affinity. Regarding `O=C1CCC(c2ccccc2)/C(=C\I)O1` (stereo not drawn), the Kh in data set [1] was determined as 0.004 min⁻¹. The Ki in data set [2] is 55 µM.

`C=C1CC(c2ccccc2)CC(=O)O1` (stereo not drawn): the Kh in data set [1] amounted to 0.0015 min⁻¹.

As to `O=C1C=C(c2ccccc2)/C(=C\I)O1`, the Kh in data set [1] worked out at 0.0015 min⁻¹.

Regarding `O=C1CC(c2ccccc2)/C(=C\I)O1` (stereo not drawn), in data set [1], the Kh turned out to be 0.0021 min⁻¹.

With `O=C1CC(c2ccccc2)C/C(=C\I)O1` (stereo not drawn), the Kc in data set [3] worked out at 0.025 min⁻¹. Further, in data set [4], affinity was put at a Ki of 0.0053 µM. This compound also yielded a Kh in data set [1] of 0.0068 min⁻¹.

The values are drawn from ChEMBL document CHEMBL1123451, “Enol lactone inhibitors of serine proteases. The effect of regiochemistry on the inactivation behavior of phenyl-substituted (halomethylene)tetra- and -dihydrofuranones and (halomethylene)tetrahydropyranones toward alpha-chymotrypsin: stable acyl enzyme intermediate” (J Med Chem, 1986).
